Assay results: patent US20210222181A1, “BACTERIAL VECTORS FOR GENETIC MANIPULATION OF BACTERIA” (BIOVERSYS AG, priority 2018, published 2021)

Test system: clinical P. aeruginosa strains
Assay: Inhibition of motility of clinical P. aeruginosa strains on LB-agar plates
Assay type: cell-based, Pseudomonas aeruginosa
Conditions: three clinical isolates of P. aeruginosa, 10 μg/ml C15 in LB-agar, 16 h at 37° C., compared with absence of C15
Procedure: Motility of clinical P. aeruginosa strains was inhibited by 12-Methyl-tetradecanoic acid (C15). Three different clinical isolates of P. aeruginosa were plated on LB-agar plates in the absence (FIG. 9, left) and presence (FIG. 9, right) of 10 μg/ml C15 to inhibit cellular motility. The plates were incubated for 16 h at 37° C. […] In contrast, in the absence of C15, the colonies are diffuse and swarm into each other, making the selection of distinct single colonies in the knock-out screening process very difficult.

CCC(C)CCCCCCCCCCC(=O)O (centres unmarked) [C15, 12-Methyl-tetradecanoic acid]
cellular motility / colony morphology on Luria Bertani agar plates: inhibited the cellular motility, leading to small well-defined colonies
cellular motility / colony morphology on Luria Bertani agar plates (listed as 12-Methyl-tetradecanoic acid (C15)): Inhibition of the motility
